Data from US7635722B1, “Chemical induced intracellular hyperthermia” (priority 1998, dated 2009).
Like-named read-outs stand apart in the source and are kept apart here.

What was measured:
[1] = format: in vivo, human
Experimental: Placement of physiologic monitoring sensors, intravenous fluids, supplemental oxygen (4 l/min) and optional oral diazepam sedation (5-10 mg) is initiated prior to treatment. Patients receive 0.85 to 1.0 liter of intravenous (IV) 5% dextrose in 0.25 normal saline per hour alternated with 5% dextrose in 0.5 normal saline plus 7.5 to 10 meq of KCl per liter to insure a urinary output of no less than 1 ml/kg/hr. […] Two hours after treatment and 48 hours post-treatment, serum chemistries and hematologic profiles are repeated. A typical patient flow chart is depicted in FIG. 14.
Pretreatment protocol: the patient was given 10 mg diazepam by mouth and dressed into a modified wet suit. The wet suit was cut lengthwise at the arms and legs. Velcro strappings were attached at the cuttings for closure, rapid removal or exposure of the limb(s). After placement of monitoring sensors, they were started on IV fluids of 5% dextrose, 0.5 normal saline with 7 meq K^+, infused at an initial rate of 12 cc/kg/hr. Evaporative heat loss from the head was minimized by a plastic shower cap and towels. A 401AC temperature probe (YSI Incorporated, Yellow Springs, Ohio) was inserted 11 cm. into the rectum. […] A TEEM 100 Metabolic Analysis System (AeroSport Inc., Ann Arbor, Mich.), with a modified face mask and oxygen delivery system (38-40% 02 saturation) for patient comfort and increased accuracy, was attached to the patient. Oxygen consumption (V02), carbon dioxide production (VC02), expired air volume (VE), heart rate (HR), and Kcal of heat produced were measured in 20 second intervals and extrapolated to minute or hourly rates.
Pretreatment protocol: all medications were stopped 2 weeks prior to treatment. The patient refused taking diazepam, placement of a Foley catheter and oxygen face mask. They dressed themself into a dry cold water immersion suit (Stearns, ISS-590I, Universal Adult) designed to prevent heat loss and modified for easy placement of physiologic monitors. Equipment for measurement of heart rate, temperature, carbon dioxide production and Kcal of heat produced were conducted as outlined in Example 1. An oral breathing tube was used to measure V02 from room air. Urine output was measured when the patient voluntarily urinated through a “Texas” catheter (superficial condom tightly fitted around the head of the penis with tubing connected to urine collection bag). The patient was informed that hyperthermia would be administered as tolerated by their stamina and monitored clinical parameters, not to exceed 5 hours, on a daily or every other day basis, for a total of 5 sessions.
Pretreatment protocol: the evening prior treatment the patient was instructed not to eat and dress in cotton undergarments. Approximately 4 hours prior to treatment 2 mg alprazolam was administered by mouth. The patient dressed themself into a dry cold water immersion suit (Stearns, previously described) with headgear. Monitoring sensors, including EKG display, IV fluids and Foley catheter were attached and the suit was zipped closed. The patient opted for oxygen supplementation. The modified face mask was connected to the TEEM 100 metabolic Analysis System for V02 measurements. Data was recorded as previously described.
Pretreatment protocol: the patient was transfused with three units of packed red blood cells. A Foley catheter was inserted on each day of treatment. They were covered in a water soaked blanket containing a polyethylene lining. A shower cap with towels was used to prevent heat loss from the head. Intravenous lines were placed into both arms with 19 gauge intracaths. EKG, heart rate, rectal thermistor, and V02 monitors were attached. Oxygen supplemented facemask and equipment was attached and data monitored as previously described under Example 1.
Pretreatment protocol: the patient was transfused with 2 units of packed red blood cells 48 hours prior to undergoing treatment. Intravenous fluids (Lactated Ringer's solution) were administered at a rate of 100 cc/hour. […]

[2] = cited from earlier work
hepatocyte = conditions: in less than 6 minutes after the hormonal action of glucagon; cited from earlier work
hepatitis C virus = assay: DNP with interferon-alpha, chronic hepatitis C (Example 10); format: in vivo, human; conditions: patient history

CNC(C)(C)Cc1ccccc1.CNC(C)(C)Cc1ccccc1.O=S(=O)(O)O [Mephenteramine sulfate]
heart rate ([1]; Example 4, ten minutes after 30 mg intramuscular, before DNP): 96
V02 ([1]; Example 4, ten minutes after 30 mg intramuscular, before DNP, from 250): 320 cc/min

NC[C@H](O)c1ccc(O)c(O)c1 [Norepinephrine bitartrate (Levophed), Norepinephrine bitartrate]
heart rate ([1]; Example 2, about 1 minute after vasopressor IV drip 1 microgram/min on DNP, from 90): 100
V02 ([1]; Example 2, about 1 minute after vasopressor IV drip on DNP): 0.85 L/min
core body temperature ([1]; Example 2, within 20 minutes of vasopressor on DNP): 41.5 °C

Oc1ccc(CCCCNC[C@H](O)c2ccc(O)c(O)c2)cc1 [arbutamine]
half-life ([2]; in vivo): 10 min

NCCc1ccc(O)c(O)c1 [dopamine]
V02 ([1]; human, in vivo): 680-710 cc/min

CN(C)c1ccc2nc3ccc(=[N+](C)C)cc-3sc2c1 [methylene blue]
VO2 ([1]; Example 9, after methylene blue 2 mg/kg infusion, on DNP 3 mg/kg): 450-500 cc/minute

NC(=O)CC[C@@H]1NC(=O)[C@H](Cc2ccccc2)NC(=O)[C@H](Cc2ccc(O)cc2)NC(=O)[C@@H](N)CSSC[C@@H](C(=O)N2CCC[C@H]2C(=O)N[C@@H](CCCN=C(N)N)C(=O)NCC(N)=O)NC(=O)[C@H](CC(N)=O)NC1=O [vasopressin]
half-life ([2]; in vivo): 5 min

glucagon
half-life ([2]; in plasma): 9 min
stimulation of hepatocyte uncoupled V02 (hepatocyte): up to 100%

interferon alpha-2b
HCV-RNA (hepatitis C virus; after 6 months of interferon alpha-2b with ribavirin, before relapse): undetectable
hemoglobin concentration (hepatitis C virus; after 12 weeks of interferon alpha-2b with ribavirin, anemia): 9.2 g/deciliter
